The target of the assay is T1, wild-type mouse TMEM16A (Mus musculus, UniProt Q8BHY3).
T1 construct: expressed in transfected cells; host or cells: HEK293T
T1 sequence (Q8BHY3 1-960): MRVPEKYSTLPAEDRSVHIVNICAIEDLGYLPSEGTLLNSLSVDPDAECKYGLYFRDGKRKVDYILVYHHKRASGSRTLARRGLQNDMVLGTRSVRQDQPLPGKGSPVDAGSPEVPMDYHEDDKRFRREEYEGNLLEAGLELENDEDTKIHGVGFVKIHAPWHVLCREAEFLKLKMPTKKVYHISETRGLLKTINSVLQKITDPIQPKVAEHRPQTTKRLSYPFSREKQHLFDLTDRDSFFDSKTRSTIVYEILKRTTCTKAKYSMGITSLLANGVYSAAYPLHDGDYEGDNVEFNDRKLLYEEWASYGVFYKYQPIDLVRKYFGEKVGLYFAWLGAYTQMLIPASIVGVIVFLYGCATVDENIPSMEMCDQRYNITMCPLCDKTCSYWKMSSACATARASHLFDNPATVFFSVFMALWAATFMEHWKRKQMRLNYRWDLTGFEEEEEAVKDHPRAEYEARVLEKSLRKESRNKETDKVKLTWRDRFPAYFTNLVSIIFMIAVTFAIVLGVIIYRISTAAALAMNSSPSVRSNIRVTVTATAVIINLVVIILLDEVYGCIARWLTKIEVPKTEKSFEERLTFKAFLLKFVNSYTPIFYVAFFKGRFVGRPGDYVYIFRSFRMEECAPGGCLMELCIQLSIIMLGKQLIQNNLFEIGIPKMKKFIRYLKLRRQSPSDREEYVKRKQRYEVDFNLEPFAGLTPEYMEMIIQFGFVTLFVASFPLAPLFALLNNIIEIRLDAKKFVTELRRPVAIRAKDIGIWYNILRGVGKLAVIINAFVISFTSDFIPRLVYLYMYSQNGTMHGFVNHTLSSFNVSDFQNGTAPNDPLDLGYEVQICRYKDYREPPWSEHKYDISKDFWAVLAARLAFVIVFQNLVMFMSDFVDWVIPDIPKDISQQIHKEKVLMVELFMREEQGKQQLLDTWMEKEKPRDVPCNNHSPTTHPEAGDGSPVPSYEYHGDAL
In words: Ultra-fast concentration-jump experiments, kinetics of 1PBC block in inside-out patches. The format is cell-based. The following applies: 3 µM 1PBC; excised patches, ultra-fast perfusion. As to the method: HEK293T cells were transfected with 3–4 μg DNA per 6 cm Petri dish using the calcium phosphate co-precipitation method and were used within 24–96 h after transfection. Recordings were performed on inside-out patches excised from HEK293T cells expressing the construct of interest. Patch pipettes were pulled from borosilicate glass capillaries (O.D. 1.5 mm, I.D. 0.86 mm, Sutter Instrument) and were fire-polished with a microforge (Narishige) before use. Pipette resistance was typically 3–8 MΩ when filled with the recording solutions detailed below. Seal resistance was typically 4 GΩ or higher. Voltage-clamp recordings were made using Axopatch 200B, Digidata 1550, and Clampex 10.7 (Molecular Devices). Analog signals were filtered with the in-built 4-pole Bessel filter at 10 kHz and were digitized at 20 kHz. Solution exchange was achieved using a gravity-fed system through a theta glass pipette mounted on an ultra-fast piezo-driven stepper (Siskiyou). […] All recordings were performed at 20 °C.
Supplementary Fig. 2: State dependence of 1PBC block. a, Kinetics of 1PBC block at an intermediate 1PBC concentration and the indicated sub- saturating Ca2+ concentrations in ultra-fast concentration- jump experiments at + 8 0 m V in the inside- out configuration. 1PBC was applied from the intracellular side. […] 6 µM (as determined in Fig. 2a, b) and kon = 1 x 106 M-1s-1. […]

The source of these data is PMC9120017, “Inhibition mechanism of the chloride channel TMEM16A by the pore blocker 1PBC” (Nature Communications, 2022).

Structures are written as SMILES.

Regarding `N#Cc1c(C(F)(F)F)cc(O)n2c1nc1ccccc12` [1PBC], the “Kinetics of block (time constant)” value is recorded as ~ 50 ms.
